{"source": "paper PMC10060569", "about": "(Frontiers in Pharmacology, 2023)", "key": {"[1]": {"target": "T1, L191A/S15V-hP2X3R (Homo sapiens, UniProt P56373, L191A/S15V)", "T1 construct": "expressed in transfected cells; host or cells: Xenopus laevis oocytes (cRNA injection)", "T1 sequence (P56373 1-397 S15V/L191A)": "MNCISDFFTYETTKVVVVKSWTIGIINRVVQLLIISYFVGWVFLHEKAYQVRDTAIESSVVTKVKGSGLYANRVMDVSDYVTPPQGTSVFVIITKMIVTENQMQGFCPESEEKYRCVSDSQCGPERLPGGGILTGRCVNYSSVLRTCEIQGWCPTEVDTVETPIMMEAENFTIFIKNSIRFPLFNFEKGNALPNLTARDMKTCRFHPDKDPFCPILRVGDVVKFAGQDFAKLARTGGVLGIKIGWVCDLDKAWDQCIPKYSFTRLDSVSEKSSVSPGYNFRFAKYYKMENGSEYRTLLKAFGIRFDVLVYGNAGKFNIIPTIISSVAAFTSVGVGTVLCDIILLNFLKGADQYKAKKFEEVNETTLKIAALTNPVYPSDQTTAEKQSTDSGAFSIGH", "experiment": "TEVC of ATP-induced currents, L191A/S15V-hP2X3R mutant in X. laevis oocytes", "assay_type": "cell-based", "experimental": "Ion currents mediated by P2X receptors were evoked by the indicated concentration of ATP or α,β-meATP and were recorded 1 or 2 days after cRNA injection at ambient temperature at a holding potential of −60 mV by two-electrode voltage clamp (TEVC) as previously described ([Hausmann et al., 2006]). Calcium-free ORi^− solution (90 mM NaCl, 1 mM KCl, 2 mM MgCl2, 10 mM HEPES, pH 7.4) was used to avoid bias due to calcium-activated chloride channels (CaCC) endogenously expressed in X. laevis oocytes ([Miledi, 1982]; [Methfessel et al., 1986]). For recordings of wt-hP2X7R, the composition of the ORi^− solution was modified according to protocols described previously and contained 100 mM NaCl, 2.5 mM KCl, 1 mM MgCl2, 5 mM HEPES, pH 7.4 ([Klapperstück et al., 2000]). The oocytes were continuously superfused with ORi^− by gravity flow (5–10 ml/min). The agonists ATP or α,β-meATP and the investigated NSAIDs were diluted in ORi^− on the day of the recording. The following agonist concentrations were used for the different P2X subtypes: 1 μM ATP (hP2X1R mutant, hP2X3R, rP2X3R, S^15V-hP2X3R, and S^15V-rP2X3R); 10 μM ATP (hP2X2R and hP2X4R); 300 μM free ATP^4- (hP2X7R); and 1 μM α,β-meATP (hP2X2/3R). […]\nIn the case of fast-desensitizing P2XR subtypes (P2X1R and P2X3R), ATP is applied five times in repetition, and the ATP-induced current amplitude in the presence (after pre-incubation) of the antagonist (fourth application) is compared to the arithmetic mean of flanking control ATP-induced current amplitudes in the absence of the antagonist (third and fifth ATP application). […] The correction factor was calculated as the ratio of the fourth ATP-induced current amplitude to the third amplitude (Eq. 3) when the experiment was performed in the absence of the antagonist. […] Since the magnitude of the run-down varies from day to day and batch to batch of oocytes, the correction factor was determined on each day of the experiments and was calculated as the arithmetic mean of several recordings (at least 3–5 and on average 5) on each day. […]"}, "[2]": {"tested_on": "COX1", "design": "method as in Warner et al., 1999", "settings": "ref Warner et al., 1999; cited from earlier work"}}}
{"smiles": "O=C(O)Cc1ccccc1Nc1c(Cl)cccc1Cl", "note": "[Diclofenac, diclofenac]", "values": [{"measurement": "inhibition at 3 µM", "setting": "[1]; read-out: % inhibition of 10 µM ATP-induced currents by 3 µM diclofenac", "result": 7.7, "unit": "%"}, {"measurement": "inhibition at 10 µM", "setting": "[1]; read-out: % inhibition of 10 µM ATP-induced currents by 10 µM diclofenac", "result": 18.4, "unit": "%"}, {"measurement": "inhibition at 30 µM", "setting": "[1]; read-out: % inhibition of 10 µM ATP-induced currents by 30 µM diclofenac", "result": 37.3, "unit": "%"}, {"measurement": "IC50", "setting": "[2]", "result": "[…]"}]}
